Data from the supplement of paper PMC10307832.

Tests used:
Experiment in all cases: relative viability (nuclei count vs DMSO), 5 days (fraction); higher = more cells survive
A-427 = test system: A-427
Outline: (§1)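 Dosing by pin tool came one day after lung cancer cell lines were seeded in 1536-well plates, using either one drug or a fixed anchor-drug dose plus five library-drug doses (not always all listed) in √10 steps. After 5 days, nuclei were counted on 4× images. Relative viability is treated-well nuclei count divided by vehicle-well nuclei count, and values are medians of duplicate plates.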

ABC-1 = test system: ABC-1
Outline: as §1

COR-L23 = test system: COR-L23
Outline: as §1

EMC-BAC-2 = test system: EMC-BAC-2
Outline: as §1

HARA = test system: HARA
Outline: as §1

HOP-62 = test system: HOP-62
Outline: as §1

LK-2 = test system: LK-2
Outline: as §1

LXF-289 = test system: LXF-289
Outline: as §1

NCI-H1793 = test system: NCI-H1793
Outline: as §1

NCI-H1944 = test system: NCI-H1944
Outline: as §1

NCI-H1993 = test system: NCI-H1993
Outline: as §1

CC1(C)CCC(c2ccc(Cl)cc2)=C(CN2CCN(c3ccc(C(=O)NS(=O)(=O)c4ccc(N[C@H](CCN5CCOCC5)CSc5ccccc5)c(S(=O)(=O)C(F)(F)F)c4)cc3)CC2)C1 [Navitoclax] + Cc1cc(Nc2cc(N3CCN(C)CC3)nc(Sc3ccc(NC(=O)C4CC4)cc3)n2)n[nH]1 [Tozasertib] (partner 0.1 µM)
relative viability (A-427; first compound 0.005 µM): 0.199 | relative viability (A-427; first compound 0.01581 µM): 0.192 | relative viability (A-427; first compound 0.05 µM): 0.161 | relative viability (A-427; first compound 0.1581 µM): 0.197 | relative viability (A-427; first compound 0.5 µM): 0.213 | relative viability (ABC-1; first compound 0.005 µM): 0.158 | relative viability (ABC-1; first compound 0.01581 µM): 0.19 | relative viability (ABC-1; first compound 0.05 µM): 0.144 | relative viability (ABC-1; first compound 0.1581 µM): 0.164 | relative viability (ABC-1; first compound 0.5 µM): 0.141 | relative viability (COR-L23; first compound 0.005 µM): 0.236 | relative viability (COR-L23; first compound 0.01581 µM): 0.197 | relative viability (COR-L23; first compound 0.05 µM): 0.172 | relative viability (COR-L23; first compound 0.1581 µM): 0.198 | relative viability (COR-L23; first compound 0.5 µM): 0.228 | relative viability (EMC-BAC-2; first compound 0.005 µM): 0.273 | relative viability (EMC-BAC-2; first compound 0.01581 µM): 0.27 | relative viability (EMC-BAC-2; first compound 0.05 µM): 0.243 | relative viability (EMC-BAC-2; first compound 0.1581 µM): 0.273 | relative viability (EMC-BAC-2; first compound 0.5 µM): 0.263 | relative viability (HARA; first compound 0.005 µM): 0.0833 | relative viability (HARA; first compound 0.01581 µM): 0.113 | relative viability (HARA; first compound 0.1581 µM): 0.0955 | relative viability (HARA; first compound 0.5 µM): 0.0891 | relative viability (HOP-62; first compound 0.005 µM): 0.389 | relative viability (HOP-62; first compound 0.01581 µM): 0.4 | relative viability (HOP-62; first compound 0.05 µM): 0.366 | relative viability (HOP-62; first compound 0.1581 µM): 0.299 | relative viability (HOP-62; first compound 0.5 µM): 0.374 | relative viability (LK-2; first compound 0.005 µM): 0.189 | relative viability (LK-2; first compound 0.01581 µM): 0.187 | relative viability (LK-2; first compound 0.05 µM): 0.198 | relative viability (LK-2; first compound 0.1581 µM): 0.159 | relative viability (LK-2; first compound 0.5 µM): 0.2 | relative viability (LXF-289; first compound 0.005 µM): 0.192 | relative viability (LXF-289; first compound 0.01581 µM): 0.222 | relative viability (LXF-289; first compound 0.05 µM): 0.15 | relative viability (LXF-289; first compound 0.1581 µM): 0.193 | relative viability (LXF-289; first compound 0.5 µM): 0.217 | relative viability (NCI-H1793; first compound 0.005 µM): 0.338 | relative viability (NCI-H1793; first compound 0.01581 µM): 0.394 | relative viability (NCI-H1793; first compound 0.1581 µM): 0.278 | relative viability (NCI-H1793; first compound 0.5 µM): 0.275 | relative viability (NCI-H1944; first compound 0.005 µM): 0.254 | relative viability (NCI-H1944; first compound 0.01581 µM): 0.246 | relative viability (NCI-H1944; first compound 0.05 µM): 0.241 | relative viability (NCI-H1944; first compound 0.1581 µM): 0.259 | relative viability (NCI-H1944; first compound 0.5 µM): 0.206 | relative viability (NCI-H1993; first compound 0.005 µM): 0.596 | relative viability (NCI-H1993; first compound 0.01581 µM): 0.666 | relative viability (NCI-H1993; first compound 0.05 µM): 0.597 | relative viability (NCI-H1993; first compound 0.1581 µM): 0.522
